Results from ChEMBL document CHEMBL3509421, “FDA drug approval package for diclofenac acid (NDA 22-202 CP, Ref ID: 3374276)”.

Tests used:
[1] = Mean AUC(0-t) of diclofenac following single oral dosing of 50 mg Cataflam in healthy human; format: ADME, organism-based; design: dietary status Fasting, dose 50 mg, dosed compound id 2.46815e+06, dosed compound name Diclofenac potassium, gender Mixed, regimen Single, route oral, study doses 50 mg; conditions: both, plasma
[2] = Mean AUC(0-infinity) of diclofenac following single oral dosing of 50 mg diclofenac potassium soft gelatin capsule in healthy human; format: ADME, organism-based; design: time infinity, dietary status Fasting, dose 50 mg, dosed compound id 2.46815e+06, dosed compound name Diclofenac potassium, gender Mixed, regimen Single, route oral, study doses 25/50 mg; conditions: both, plasma, read-out: AUC (0-infinity)
[3] = Mean AUC(0-infinity) of diclofenac following single oral dosing of 25 mg diclofenac potassium soft gelatin capsule in healthy human; format: ADME, organism-based; design: time infinity, dietary status Fasting, dose 25 mg, dosed compound id 2.46815e+06, dosed compound name Diclofenac potassium, gender Mixed, regimen Single, route oral, study doses 25/50 mg; conditions: both, plasma, read-out: AUC (0-infinity)
[4] = Mean AUC(0-infinity) of diclofenac following single oral dosing of 50 mg Cataflam in healthy human; format: ADME, organism-based; design: time infinity, dietary status Fasting, dose 50 mg, dosed compound id 2.46815e+06, dosed compound name Diclofenac potassium, gender Mixed, regimen Single, route oral, study doses 50 mg; conditions: both, plasma, read-out: AUC (0-infinity)
[5] = Mean Tmax of diclofenac following single oral dosing of 50 mg diclofenac potassium soft gelatin capsule in healthy human; format: ADME, organism-based; design: dietary status Fasting, dose 50 mg, dosed compound id 2.46815e+06, dosed compound name Diclofenac potassium, gender Mixed, regimen Single, route oral, study doses 25/50 mg; conditions: both, plasma
[6] = Mean Tmax of diclofenac following single oral dosing of 25 mg diclofenac potassium soft gelatin capsule in healthy human; format: ADME, organism-based; design: dietary status Fasting, dose 25 mg, dosed compound id 2.46815e+06, dosed compound name Diclofenac potassium, gender Mixed, regimen Single, route oral, study doses 25/50 mg; conditions: both, plasma
[7] = Geometric mean for AUC (0-t) of diclofenac following single oral dosing of 50 mg Cataflam tablet in healthy human; format: ADME, organism-based; design: dietary status Fasting, dose 50 mg, dosed compound id 2.46815e+06, dosed compound name Diclofenac potassium, gender Mixed, regimen Single, route oral; conditions: both, plasma
[8] = Mean Tmax of diclofenac following single oral dosing of 50 mg Cataflam in healthy human; format: ADME, organism-based; design: dietary status Fasting, dose 50 mg, dosed compound id 2.46815e+06, dosed compound name Diclofenac potassium, gender Mixed, regimen Single, route oral, study doses 50 mg; conditions: both, plasma
[9] = (§1) Mean AUC(0-infinity) of diclofenac potassium following oral dosing of PRO-513 50 mg sachet in healthy human; format: ADME, organism-based; design: time infinity, dietary status Fasting, dose 50 mg, dosed compound id 2.46815e+06, dosed compound name Diclofenac potassium, gender Mixed, regimen Single, route oral, study doses 50 mg; conditions: both, plasma, read-out: AUC(0-infinity)
[10] = (§2) Mean AUC(0-t) of diclofenac potassium following oral dosing of PRO-513 50 mg sachet in healthy human; format: ADME, organism-based; design: dietary status Fasting, dose 50 mg, dosed compound id 2.46815e+06, dosed compound name Diclofenac potassium, gender Mixed, regimen Single, route oral, study doses 50 mg; conditions: both, plasma
[11] = (§3) Mean median Tmax value of diclofenac potassium following oral dosing of PRO-513 50 mg sachet in healthy human; format: ADME, organism-based; design: dietary status Fasting, dose 50 mg, dosed compound id 2.46815e+06, dosed compound name Diclofenac potassium, gender Mixed, regimen Single, route oral, study doses 50 mg; conditions: both, plasma, read-out: Median Tmax
[12] = (§4) Mean minimum Tmax value of diclofenac potassium following oral dosing of PRO-513 50 mg sachet in healthy human; format: ADME, organism-based, Plasma; design: dietary status Fasting, dose 50 mg, dosed compound id 2.46815e+06, dosed compound name Diclofenac potassium, gender Mixed, regimen Single, route oral, study doses 50 mg; conditions: in vivo
[13] = (§5) Mean maximum Tmax value of diclofenac potassium following oral dosing of PRO-513 50 mg sachet in healthy human; format: ADME, organism-based; design: dietary status Fasting, dose 50 mg, dosed compound id 2.46815e+06, dosed compound name Diclofenac potassium, gender Mixed, regimen Single, route oral, study doses 50 mg; conditions: both, plasma, read-out: Maximum Tmax
[14] = (§6) Mean Kel of diclofenac potassium following oral dosing of PRO-513 50 mg sachet in healthy human; format: ADME, organism-based; design: dietary status Fasting, dose 50 mg, dosed compound id 2.46815e+06, dosed compound name Diclofenac potassium, gender Mixed, regimen Single, route oral, study doses 50 mg; conditions: both, plasma
[15] = (§7) Mean AUC(0-infinity) of diclofenac potassium following oral dosing of Cataflam 50 mf tablet in healthy human; format: ADME, organism-based; design: time infinity, dietary status Fasting, dose 50 mg, dosed compound id 2.46815e+06, dosed compound name Diclofenac potassium, gender Mixed, regimen Single, route oral, study doses 50 mg; conditions: both, plasma, 50 mg, read-out: AUC(0-infinity)
[16] = (§8) Mean AUC(0-t) of diclofenac potassium following oral dosing of Cataflam 50 mf tablet in healthy human; format: ADME, organism-based; design: dietary status Fasting, dose 50 mg, dosed compound id 2.46815e+06, dosed compound name Diclofenac potassium, gender Mixed, regimen Single, route oral, study doses 50 mg; conditions: both, plasma, 50 mg
[17] = Mean Cmax of diclofenac potassium following oral dosing of Cataflam 50 mf tablet in healthy human; format: ADME, organism-based; design: dietary status Fasting, dose 50 mg, dosed compound id 2.46815e+06, dosed compound name Diclofenac potassium, gender Mixed, regimen Single, route oral, study doses 50 mg; conditions: both, plasma, 50 mg
[18] = Mean median Tmax value of diclofenac potassium following oral dosing of Cataflam 50 mf tablet in healthy human; format: ADME, organism-based; design: dietary status Fasting, dose 50 mg, dosed compound id 2.46815e+06, dosed compound name Diclofenac potassium, gender Mixed, regimen Single, route oral, study doses 50 mg; conditions: both, plasma, 50 mg, read-out: Median Tmax
[19] = Mean minimum Tmax value of diclofenac potassium following oral dosing of Cataflam 50 mf tablet in healthy human; format: ADME, organism-based; design: dietary status Fasting, dose 50 mg, dosed compound id 2.46815e+06, dosed compound name Diclofenac potassium, gender Mixed, regimen Single, route oral, study doses 50 mg; conditions: both, plasma, 50 mg, read-out: Minimum Tmax
[20] = Mean maximum Tmax value of diclofenac potassium following oral dosing of Cataflam 50 mf tablet in healthy human; format: ADME, organism-based; design: dietary status Fasting, dose 50 mg, dosed compound id 2.46815e+06, dosed compound name Diclofenac potassium, gender Mixed, regimen Single, route oral, study doses 50 mg; conditions: both, plasma, 50 mg, read-out: Maximum Tmax
[21] = Mean Kel of diclofenac potassium following oral dosing of Cataflam 50 mf tablet in healthy human; format: ADME, organism-based; design: dietary status Fasting, dose 50 mg, dosed compound id 2.46815e+06, dosed compound name Diclofenac potassium, gender Mixed, regimen Single, route oral, study doses 50 mg; conditions: both, plasma, 50 mg
[22] = Mean terminal elimination half-life of diclofenac potassium following oral dosing of Cataflam 50 mf tablet in healthy human; conditions: both, plasma, 50 mg
[23] = as §1; format: ADME, organism-based; design: time infinity, dietary status Fed, dose 50 mg, dosed compound id 2.46815e+06, dosed compound name Diclofenac potassium, gender Mixed, regimen Single, route oral, study doses 50 mg; conditions: both, plasma, read-out: AUC(0-infinity)
[24] = as §2; format: ADME, organism-based; design: dietary status Fed, dose 50 mg, dosed compound id 2.46815e+06, dosed compound name Diclofenac potassium, gender Mixed, regimen Single, route oral, study doses 50 mg; conditions: both, plasma
[25] = Mean Cmax of diclofenac potassium following oral dosing of PRO-513 50 mg sachet in healthy human; format: ADME, organism-based; design: dietary status Fed, dose 50 mg, dosed compound id 2.46815e+06, dosed compound name Diclofenac potassium, gender Mixed, regimen Single, route oral, study doses 50 mg; conditions: both, plasma
[26] = as §3; format: ADME, organism-based; design: dietary status Fed, dose 50 mg, dosed compound id 2.46815e+06, dosed compound name Diclofenac potassium, gender Mixed, regimen Single, route oral, study doses 50 mg; conditions: both, plasma, read-out: Median Tmax
[27] = as §4; format: ADME, organism-based, Plasma; design: dietary status Fed, dose 50 mg, dosed compound id 2.46815e+06, dosed compound name Diclofenac potassium, gender Mixed, regimen Single, route oral, study doses 50 mg; conditions: in vivo
[28] = as §5; format: ADME, organism-based; design: dietary status Fed, dose 50 mg, dosed compound id 2.46815e+06, dosed compound name Diclofenac potassium, gender Mixed, regimen Single, route oral, study doses 50 mg; conditions: both, plasma, read-out: Maximum Tmax
[29] = as §6; format: ADME, organism-based; design: dietary status Fed, dose 50 mg, dosed compound id 2.46815e+06, dosed compound name Diclofenac potassium, gender Mixed, regimen Single, route oral, study doses 50 mg; conditions: both, plasma
[30] = as §7; format: ADME, organism-based; design: dietary status Fed, dose 50 mg, dosed compound id 2.46815e+06, dosed compound name Diclofenac potassium, gender Mixed, regimen Single, route oral, study doses 50 mg, time infinity; conditions: both, plasma, 50 mg, read-out: AUC(0-infinity)
[31] = as §8; format: ADME, organism-based; design: dietary status Fed, dose 50 mg, dosed compound id 2.46815e+06, dosed compound name Diclofenac potassium, gender Mixed, regimen Single, route oral, study doses 50 mg; conditions: both, plasma, 50 mg

`O=C(O)Cc1ccccc1Nc1c(Cl)cccc1Cl` [DICLOFENAC] gave an AUC(0-t) [1] of 1130 ng·h/mL, an AUC(0-inf) [2] of 1230 ng·h/mL and an AUC(0-inf) [3] of 603 ng·h/mL. It also gave an AUC(0-inf) [4] of 1140 ng·h/mL, a Tmax [5] of 28.8 min and a Tmax [6] of 27 min. The AUC(0-t) [7] was 1290 ng·h/mL, the Tmax [8] was 55.8 min and the AUC(0-inf) [9] was 1250 ng·h/mL. For the same molecule, the AUC(0-t) [10] was 1240 ng·h/mL, the Tmax [11] was 15 min and the “Minimum Tmax” value [12] was 10.2 min. For the same molecule, the Tmax [13] was 40.2 min, the k el [14] was 0.000156 s⁻¹ and the AUC(0-inf) [15] was 1100 ng·h/mL. The AUC(0-t) [16] was 1080 ng·h/mL, the Cmax [17] was 1160 ng/mL and the Tmax [18] was 30 min. It also gave a Tmax [19] of 15 min, a Tmax [20] of 240 min and a k el [21] of 0.000164 s⁻¹. For the same molecule, the half-life [22] was 77.4 min, the AUC(0-inf) [23] was 1080 ng·h/mL and the AUC(0-t) [24] was 1050 ng·h/mL. For the same molecule, the Cmax [25] was 506 ng/mL, the Tmax [26] was 10.2 min and the “Minimum Tmax” value [27] was 4.8 min. It also gave a Tmax [28] of 240 min, a k el [29] of 0.000108 s⁻¹ and an AUC(0-inf) [30] of 1070 ng·h/mL. It also gave an AUC(0-t) [31] of 1060 ng·h/mL.
